The values that follow come from patent publication US20230330004A1, “COMPOSITION COMPRISING GINSENG EXTRACT FOR REFORMING SKIN MICROBIOTA” (KOREA GINSENG CORP., priority 2020, published 2023).

Assay [1] deals with Staphylococcus epidermidis. In words: Growth of beneficial skin microbes, absorbance at 600 nm (Experimental Example 2). The class given is cell-based. Particulars: for Effect of selectively promoting the growth of beneficial microbes rather than harmful microbes (in words): S. epidermidis versus S. aureus, from Table 2; for Effect of promoting the growth of beneficial microbes (in words): S. epidermidis, compared to the composition of the present invention; for OD600 (Beneficial microbes): Staphylococcus epidermidis, incubated 24 hours in shaking incubator, absorbance at 600 nm; for Increase in beneficial microbes versus harmful microbes: ratio of OD600 S. epidermidis / S. aureus, 24 hours. Here is the method:
(§1) To compare the compositions of Example and Comparative Examples in terms of the increase in growth of beneficial skin microbes versus harmful skin microbes, the growth of each microbe was measured by the same method as described in Experimental Example 1. Specifically, using Staphylococcus epidermidis as beneficial skin microbes, and Staphylococcus aureus (Strain number 39149, Korean Collection for Type Cultures) as harmful skin microbes, samples were inoculated respectively and incubated for 24 hours in a shaking incubator. Solutions with the strains grown therein were each collected and centrifuged, and after removing the supernatant therefrom, an equivalent amount of a saline solution was added to prepare a bacterial solution.

Assay [2] concerns Staphylococcus aureus (Strain number 39149, Korean Collection for Type Cultures). Put plainly: Growth of harmful skin microbes, absorbance at 600 nm (Experimental Example 2). The format is cell-based. Particulars: incubated 24 hours in shaking incubator. As to the method: as §1

As for 3-Sialyllactose [Comparative Example 2], in assay [1], the “Effect of selectively promoting the growth of beneficial microbes rather than harmful microbes (in words)” value is listed as “low”, the “Effect of promoting the growth of beneficial microbes (in words)” value is listed as “negligible”, the “OD600 (Beneficial microbes)” value is recorded as 0.049 and the “Increase in beneficial microbes versus harmful microbes” value is recorded as “×0.636”. Besides, in assay [2], the “OD600 (Harmful microbes)” value worked out at 0.077.

For the compound `CC(=O)N[C@H]1[C@H]([C@H](O)[C@H](O)CO)O[C@@](OC[C@H]2O[C@@H](O[C@H]3[C@H](O)[C@@H](O)C(O)O[C@@H]3CO)[C@H](O)[C@@H](O)[C@H]2O)(C(=O)O)C[C@@H]1O` (stereo partly shown) [Comparative Example 3, 6-Sialyllactose], in assay [1], the “Effect of selectively promoting the growth of beneficial microbes rather than harmful microbes (in words)” value is recorded as “low”, the “Effect of promoting the growth of beneficial microbes (in words)” value is listed as “negligible”, the “OD600 (Beneficial microbes)” value is 0.047 and the “Increase in beneficial microbes versus harmful microbes” value is given as “×0.723”. In addition, the “OD600 (Harmful microbes)” value in assay [2] came to 0.065.
